# Reference: publication PMC10578308, “Design of Synthetic Surrogates for the Macrolactone Linker Motif in Coibamide A” (ACS Medicinal Chemistry Letters, 2023)
# Positions of bridges follow the written chain, without caps; N, C: chain ends. Non-standard residues stand in square brackets, D forms with d. Residues, ends and D or L forms follow the SMILES beside them. *: point of attachment. NMe2Val = CC(C)[C@@H](C(=O)*)N(C)C; NMeI = CC[C@H](C)[C@H](NC)C(=O)O; NMeT = CN[C@H](C(=O)O)[C@@H](C)O; NMeL = CN[C@@H](CC(C)C)C(=O)O; NMeDap = CN[C@@H](CN)C(=O)O; dHiv = CC(C)[C@@H](O)C(=O)O; NMeS = CN[C@@H](CO)C(=O)O; NMeA = CN[C@@H](C)C(=O)O; dNMeA = CN[C@H](C)C(=O)O
# Tests used:
# [1] = tested on: human A549 lung cancer cells; assay: MTS antiproliferative/cell viability assay in A549 cells; assay type: cell-based; conditions: for CC50: human A549 lung cancer cells, MTS, 72 h, n = 3, read-out: CC50 (concentration for a 50% decrease in viability)
# Protocol: Next, we synthesized CbA derivatives 3a,b by Fmoc-based SPPS using Fmoc/Alloc protected lysine derivatives 4a,b, according to the synthetic procedure for CbA mimetics in our previous study (Scheme S2).[21] The bioactivity profile of the resulting peptides 3a,b was investigated by using a standard MTS antiproliferative/cell viability assay to assess the cytotoxic potential of CbA analogues against human A549 lung cancer cells (Table 1).
# 10% (v/v) fetal bovine serum at 37 °C in a 5% CO2-incubator. Viability assays using A549 cells were performed in 96-well plates (BD Falcon). A549 cells were seeded at 1000 cells/well in 90 μL of culture media, respectively, and were cultured for 24 h. Chemical compounds in DMSO were diluted 50-fold with the culture medium in advance. 30 μL of the chemical diluents were added. The final volume of DMSO in the medium was equal to 0.5% (v/v). The cells under chemical treatment were incubated for a further 72 h. The wells in the plates were washed twice with the cultured medium without phenol- […]
# After 1-hour incubation with 100 μL of the medium, the cell culture in each well was supplemented with 20 μL of the MTS reagent (Promega), followed by incubation for additional 40 min. Absorbance at 490 nm of each well was measured using a Wallac 1420 ARVO SX multilabel counter (Perkin Elmer).
# Three experiments were performed per condition and the averages of inhibition rates in each condition were evaluated to determine IC50 values using the GraphPad Prism software. […]
# [2] = CellTiter-Glo viability assay, normal human dermal fibroblasts; assay type: cell-based; conditions: normal human dermal fibroblasts (HDFs), 50% viability after 72-hr incubation, n = 3, read-out: HDF CC50
# Protocol: (§1) Viability Assays Using U87 MG Cells, HCT116 Cells and normal human dermal fibroblasts.
# (§2) Human U87-MG glioblastoma, HCT116 colon cancer cells and normal human dermal fibroblasts were from American Type Culture Collection (ATCC, Manasses, VA). […]
# (§3) Human dermal fibroblasts were cultured in Fibroblast Basal Medium (#PCS-201-030) supplemented with Fibroblast Growth Kit (#PCS-201-041) from ATCC. All cells were grown under standard conditions and maintained at 37 °C in an atmosphere of 5% CO2. For analysis of biological activity, cells were seeded at 3,000 cells/well into 96-well plates and allowed to attach overnight. On the day of the experiment, all cells were treated at the same time with the test compound or vehicle (0.1% DMSO) and plates returned to the cell culture incubator for 72 h. The viability of cells was measured at 72 h using a CellTiter-Glo® Luminescent Cell Viability Assay (Promega Corp) and luminescent signals measured using a multi-mode microplate reader (Biotek Synergy HT). Concentration-response relationships were analyzed using GraphPad Prism Software version 9.5.1 (GraphPad Software, Inc., San Diego, CA), and CC50 values derived using nonlinear regression analysis fit to a logistic equation. […]
# [3] = tested on: HCT116 colon cancer cells; assay: CellTiter-Glo viability assay, HCT116 cells; assay type: cell-based, human; conditions: 50% viability after 72-hr incubation, n = 3
# Protocol: as §1, §2
# […] streptomycin (1% penicillin/streptomycin). HCT116 cells were cultured in McCoy’s 5A medium supplemented with 10% FBS and 1% penicillin/streptomycin. […]
# as §3, with “(#PCS-201-041)” for “Human dermal fibroblasts were cultured in Fibroblast Basal Medium (#PCS-201-030) supplemented with Fibroblast Growth Kit (#PCS-201-041)”
# [4] = tested on: U87-MG glioblastoma cells; assay: CellTiter-Glo viability assay, U87-MG cells; assay type: cell-based, human; conditions: 50% viability after 72-hr incubation, n = 3
# Protocol: as §1
# Human U87-MG glioblastoma, HCT116 colon cancer cells and normal human dermal fibroblasts were from American Type Culture Collection (ATCC, Manasses, VA). U87-MG cells were cultured in Minimum Essential Medium (MEM) with Earl’s salts and L-glutamine (Corning Life Sciences), supplemented with 10% fetal bovine serum (FBS; Hyclone, Logan, UT) and 100 U/mL penicillin and […] streptomycin (1% penicillin/streptomycin). HCT116 cells were cultured in McCoy’s 5A medium supplemented with 10% FBS and 1% penicillin/streptomycin. […]
# as §3, with “(#PCS-201-041)” for “Human dermal fibroblasts were cultured in Fibroblast Basal Medium (#PCS-201-030) supplemented with Fibroblast Growth Kit (#PCS-201-041)”
# [5] = target: GLuc secretion (model Sec61 substrate) from U87-MG-GLuc cells (Homo sapiens, UniProt P61619); assay: Gaussia luciferase (GLuc) secretory assay; assay type: cell-based; conditions: 18-h incubation, n = 3, read-out: IC50 (50% inhibition of GLuc expression)
# Protocol: To investigate the mechanistic basis for cytotoxicity, all CbA derivatives were evaluated for their ability to inhibit expression of a model Sec61 substrate using U87-MG cells engineered to express a naturally secreted reporter protein, Gaussia luciferase (GLuc) (Tables 1 and 2). For these studies, U87-MG-GLuc cells were exposed to increasing concentrations of each peptide, or vehicle, for 18 h, and the cell culture medium was assayed for the presence of GLuc. […]
# Gaussia Luciferase (GLuc) Secretory Assay
# The generation of U87-MG cells expressing the secreted reporter Gaussia luciferase (GLuc) has been described previously.S5,S6 U87-MG-GLuc cells were cultured in Minimum Essential Medium (MEM) with Earl’s salts and L-glutamine (Corning Life Sciences), supplemented with 10% fetal bovine serum […]
# (FBS; Hyclone, Logan, UT) and 100 U/mL penicillin and […] streptomycin (1% penicillin/streptomycin). All cells were grown under standard conditions and maintained at 37 °C in an atmosphere of 5% CO2. For analysis of biological activity, cells were seeded at 3,000 cells/well into 96-well plates and allowed to attach overnight. On the day of the experiment, all cells were treated at the same time with the test compound or vehicle (0.1% DMSO) and plates returned to the cell culture
# [6] = tested on: normal human dermal fibroblasts (HDFs); assay: CellTiter-Glo viability assay, normal human dermal fibroblasts; assay type: cell-based; conditions: 50% viability after 72-hr incubation, n = 3, read-out: HDF CC50
# Protocol: as §1, §2, §3
# [7] = tested on: endogenous VEGF-A secreted from human SF-268 glioblastoma cells; assay: Detection of secreted VEGF-A by ELISA; assay type: cell-based; conditions: 24 h, Figure S5
# GLuc secretion (model Sec61 substrate) from U87-MG-GLuc cells, sequence (P61619 whole entry): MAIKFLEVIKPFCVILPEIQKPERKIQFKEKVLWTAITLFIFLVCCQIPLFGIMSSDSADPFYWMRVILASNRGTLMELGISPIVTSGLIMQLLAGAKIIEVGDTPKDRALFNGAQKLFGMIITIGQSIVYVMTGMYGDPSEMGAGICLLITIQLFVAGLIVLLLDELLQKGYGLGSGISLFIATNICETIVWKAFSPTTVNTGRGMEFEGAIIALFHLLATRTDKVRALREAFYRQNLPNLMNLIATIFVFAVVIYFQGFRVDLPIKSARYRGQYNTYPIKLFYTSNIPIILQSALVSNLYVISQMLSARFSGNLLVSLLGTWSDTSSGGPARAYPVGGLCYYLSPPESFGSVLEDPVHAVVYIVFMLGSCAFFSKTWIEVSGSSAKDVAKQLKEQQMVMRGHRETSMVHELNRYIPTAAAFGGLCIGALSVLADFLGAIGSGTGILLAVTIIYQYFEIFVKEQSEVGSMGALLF
SMILES,CC50 [1] [nM],CC50 at 72 h [2] [nM],CC50 [3] [nM],CC50 [4] [nM],IC50 [5] [nM],CC50 [6] [nM],expression of endogenous secreted VEGF-A (in words) [7],"fold more potent (cytotoxicity) than 3a ([1]; A549 cells, CC50 compared with 3a) [fold]","fold more potent (cytotoxicity) than 1a ([1]; A549 cells, CC50 compared with 1a)"
"CC[C@H](C)[C@H]1C(=O)N[C@@H](C)C(=O)N(C)[C@@H](CC(C)C)C(=O)N[C@@H](Cc2ccc(OC)cc2)C(=O)N(C)[C@H](C)C(=O)O[C@H](C)[C@H](N(C)C(=O)[C@H](CC(C)C)N(C)C(=O)[C@H](COC)N(C)C(=O)[C@H](OC(=O)[C@H](C(C)C)N(C)C)C(C)C)C(=O)N(C)[C@@H](COC)C(=O)N1C [Coibamide A (1a), coibamide A] (NMe2Val-[dHiv][NMeS](Me)[NMeL][NMeT][NMeS](Me)[NMeI]A[NMeL]Y(Me)[dNMeA]; ester 4-C)",1.5 ± 0.4,6.7 ± 2.1,2.7 ± 0.5,50 ± 6,1.1 ± 0.3,,,,
"CC[C@H](C)[C@H]1C(=O)N[C@@H](C)C(=O)N(C)[C@@H](CC(C)C)C(=O)N[C@@H](Cc2ccc(OC)cc2)C(=O)N(C)[C@H](C)C(=O)O[C@H](C)[C@H](N(C)C(=O)[C@H](CC(C)C)N(C)C(=O)[C@H](C)N(C)C(=O)[C@H](OC(=O)[C@H](C(C)C)N(C)C)C(C)C)C(=O)N(C)[C@@H](C)C(=O)N1C [Peptide 1b, reference compound] (NMe2Val-[dHiv][NMeA][NMeL][NMeT][NMeA][NMeI]A[NMeL]Y(Me)[dNMeA]; ester 4-C)",3.1 ± 0.8,,3.9 ± 0.5,2.6 ± 0.1,2 ± 0.3,4.6 ± 1.5,,,
CC[C@H](C)[C@H]1C(=O)N[C@@H](C)C(=O)N(C)[C@@H](CC(C)C)C(=O)N[C@@H](Cc2ccc(OC)cc2)C(=O)N(C)[C@H](C)CC[C@H](C)[C@H](N(C)C(=O)[C@H](CC(C)C)N(C)C(=O)[C@H](C)N(C)C(=O)[C@H](OC(=O)[C@H](C(C)C)N(C)C)C(C)C)C(=O)N(C)[C@@H](C)C(=O)N1C [Peptide 3a],41 ± 4,,121 ± 23,56 ± 2,18 ± 1,213 ± 29,statistically significant and concentration-dependent decreases,,
CC[C@H](C)[C@H]1C(=O)N[C@@H](C)C(=O)N(C)[C@@H](CC(C)C)C(=O)N[C@@H](Cc2ccc(OC)cc2)C(=O)N(C)[C@H](C)/C=C/[C@H](C)[C@H](N(C)C(=O)[C@H](CC(C)C)N(C)C(=O)[C@H](C)N(C)C(=O)[C@H](OC(=O)[C@H](C(C)C)N(C)C)C(C)C)C(=O)N(C)[C@@H](C)C(=O)N1C [Peptide 3b],2.6 ± 0.4,,11 ± 1,6.2 ± 0.1,13 ± 2,8.3 ± 2.1,,10,
CC[C@H](C)[C@H]1C(=O)N[C@@H](C)C(=O)N(C)[C@@H](CC(C)C)C(=O)N[C@@H](Cc2ccc(OC)cc2)C(=O)N(C)[C@H](C)C(=O)N[C@H](C)[C@H](N(C)C(=O)[C@H](CC(C)C)N(C)C(=O)[C@H](C)N(C)C(=O)[C@H](OC(=O)[C@H](C(C)C)N(C)C)C(C)C)C(=O)N(C)[C@@H](C)C(=O)N1C [Peptide 16a],3.6 ± 1.4,,4.5 ± 0.5,3.9 ± 0.5,0.71 ± 0.09,4.6 ± 1.4,,,
CC[C@H](C)[C@H]1C(=O)N[C@@H](C)C(=O)N(C)[C@@H](CC(C)C)C(=O)N[C@@H](Cc2ccc(OC)cc2)C(=O)N(C)[C@H](C)C(=O)N[C@H](C)[C@H](N(C)C(=O)[C@H](CC(C)C)N(C)C(=O)[C@H](COC)N(C)C(=O)[C@H](OC(=O)[C@H](C(C)C)N(C)C)C(C)C)C(=O)N(C)[C@@H](COC)C(=O)N1C [Peptide 16b],1.3 ± 0.3,,3.4 ± 0.6,2.2 ± 0.4,0.04 ± 0.02,3.9 ± 1.5,,,
CC[C@H](C)[C@H]1C(=O)N[C@@H](C)C(=O)N(C)[C@@H](CC(C)C)C(=O)N[C@@H](Cc2ccc(-c3ccccc3)cc2)C(=O)N(C)[C@H](C)C(=O)N[C@H](C)[C@H](N(C)C(=O)[C@H](CC(C)C)N(C)C(=O)[C@H](COC)N(C)C(=O)[C@H](OC(=O)[C@H](C(C)C)N(C)C)C(C)C)C(=O)N(C)[C@@H](COC)C(=O)N1C [Peptide 16c],0.27 ± 0.1,,0.8 ± 0.23,0.6 ± 0.2,0.08 ± 0.03,0.38 ± 0.08,,,approximately 5 fold
CC[C@H](C)[C@H]1C(=O)N[C@@H](C)C(=O)N(C)[C@@H](CC(C)C)C(=O)N[C@@H](Cc2ccc(OC)cc2)C(=O)N(C)[C@H](C)C(=O)NC[C@H](N(C)C(=O)[C@H](CC(C)C)N(C)C(=O)[C@H](C)N(C)C(=O)[C@H](OC(=O)[C@H](C(C)C)N(C)C)C(C)C)C(=O)N(C)[C@@H](C)C(=O)N1C [Peptide 17a] (NMe2Val-[dHiv][NMeA][NMeL][NMeDap][NMeA][NMeI]A[NMeL]Y(Me)[dNMeA]; lactam 4-C),,,60 ± 4,48 ± 3,30 ± 3.9,123 ± 25,,,
CC[C@H](C)[C@H]1C(=O)N[C@@H](C)C(=O)N(C)[C@@H](CC(C)C)C(=O)N[C@@H](Cc2ccc(OC)cc2)C(=O)N(C)[C@H](C)C(=O)N(C)C[C@H](N(C)C(=O)[C@H](CC(C)C)N(C)C(=O)[C@H](C)N(C)C(=O)[C@H](OC(=O)[C@H](C(C)C)N(C)C)C(C)C)C(=O)N(C)[C@@H](C)C(=O)N1C [Peptide 17b],6500,,,,,,,,
